Measured values taken from US12383624B2, “Cargo delivery system and composition comprising the same” (SEOUL NATIONAL UNIVERSITY R&DB FOUNDATION, priority 2018, dated 2025).

Experiments:
[1] = molecular target: T1, ERα (Homo sapiens, UniProt P03372); test: target protein degradation by immunoblotting (Experimental Example 6); format: cell-based; conditions: MCF7 cell line, 24 hours
T1 construct: as cell lines primarily expressing the target protein; endogenous in cells; host or cells: MCF7
Description: (§1) In order to evaluate the target proteion degradation efficacy by Examples 14 to 33 according the disclosure, the following experiment was conducted.
(§2) First, as cell lines primarily expressing the target protein, Human kidney-derived cancer cells, HEK293T (ATCC, CRL-3216), human prostate-derived cancer cells, LNcap (Korean Cell Line Bank, Korean Cell Line Research Foundation, KCLB No. 80018), mouse embryonic fibroblast, MEF (ATCC, SCRC-1008), human cervical cancer cells, HeLa (Korean Cell Line Bank, Korean Cell Line Research Foundation, KCLB No. 10002), human blood-derived cells, K562 (Korean Cell Line Bank, Korean Cell Line Research Foundation, KCLB No. 10243), human blood-derived cells, THP-1 (Korean Cell Line Bank, Korean Cell Line Research Foundation, KCLB No. 40202), human lung-derived cancer cells, A549 (Korean Cell Line Bank, Korean Cell Line Research Foundation, KCLB No. 10185), human breast-derived cancer cells, MCF7 (Korean Cell Line Bank, Korean Cell Line Research Foundation, KCLB No. 30022), human neuroblastoma, SH-SY5Y cell lines (Korean Cell Line Bank, Korean Cell Line Research Foundation, KCLB No. 22266), human pancreatic cancer cells, PANC-1 (Korean Cell Line Bank, Korean Cell Line Research Foundation, KCLB No. 21469) were cultured, respectively, in an incubator maintained at 5% carbon dioxide, using DMEM containing 10% FBS and 1% streptomycin/penicillin, RPMI1640, or MEM medium, and then the respective cells were dispensed in 12-well plate. Additional incubation was performed for 24 hours to ensure that each cell completely fixed to the surface of the plate.
(§3) In order to confirm whether Compounds A to W of Examples 14 to 33 degrade the target protein respectively, the cultured cells were treated with the compound of each example for 24 hours and then collected.
(§4) In this case, HEK293T, which is human kidney-derived cancer cells, LNcap, which is human prostate-derived cancer cells, and MEF cell line, which is mouse embryonic fibroblasts, were treated with Example 14 (Compound A). HEK293T, which is human kidney-derived cancer cells, was treated with Example 15 (Compound B). HEK293T cell line, which is human kidney-derived cancer cells, and HeLa cell line, which is cervical-derived cancer cells, were treated with Example 16 (Compound C). HEK293T cell line, which is human kidney-derived cancer cells, was treated with Example 17 (Compound D). K562 cell line, which is human blood-derived cells, was treated with Example 18 (Compound E). HEK293T cell line, which is human kidney-derived cancer cells, was treated with Example 19 (Compound F). THP-1 cell line, which is human blood-derived cells, was treated with Example 20 (Compound G). A549 cell line, which is human lung-derived cancer cells, was treated with Example 21 (Compound H). A549 cell line, which is human lung-derived cancer cells, was treated with Example 22 (Compound I). MCF7 cell line, which is human breast-derived cancer cells, was treated with Example 23 (Compound J). HEK293T cell line, which is […], was treated with Example 24 (Compound L). SH-SY5Y, which is human neuroblastoma, and HeLa cell line, which is cervical-derived cancer cells, were treated with Example 25 (Compound M). THP-1 cell line, which is human blood-derived cells, was treated with Example 26 (Compound P). SH-SY5Y, which is human neuroblastoma, and HeLa cell line, which is cervical-derived cancer cells, were treated with Example 27 (Compound Q). SH-SY5Y, which is human neuroblastoma, and HeLa cell line, which is cervical-derived cancer cells, were treated with Example 28 (Compound R). HeLa cell line, a human cervical-derived cancer cell, was treated with Example 29 (Compound S). SH-SY5Y cell line, which is human neuroblastoma, was treated with Example 30 (Compound T). SH-SY5Y cell line, which is human neuroblastoma, was treated with Example 31 (Compound U). PANC-1 cell line, which is human pancreatic-derived cancer cells, was treated with Example 32 (Compound V). […]

[2] = molecular target: T2, Chk1 (Homo sapiens, UniProt O14757); test: as above; format: cell-based; conditions: HEK293T cell line, 24 hours
T2 construct: as cell lines primarily expressing the target protein; endogenous in cells; host or cells: HEK293T
Description: as §1, §2, §3, §4

[3] = molecular target: T3, p-53 (Homo sapiens, UniProt P04637, R273H); test: as above; format: cell-based; conditions: PANC-1 cell line, 24 hours
T3 construct: endogenous in cells; host or cells: PANC-1
Description: as §1, §2, §3, §4

[4] = test system: Tau; test: as above; format: cell-based, human; conditions: SH-SY5Y cell line, 24 hours
Description: as §1, §2, §3, §4

[5] = test system: p62 and each target protein; test: p62-mediated delivery of target proteins to autophagy by immunofluorescence staining and confocal microscopy; format: cell-based; conditions: cells cultured 24 hours with compound
Description: In order to confirm the efficacy of P62-mediated delivery of target proteins to autophagy after treatment with the example compounds of the disclosure, immunofluorescence staining was performed by using p62 and each target protein as markers. The cover glass was placed on a 24-well plate for immunofluorescence staining, cell lines primarily expressing the target protein or gene recombinant cell lines were cultured. The cells were dispensed and cultured 24 hours, and then treated with Example 1 (ATCRET-1104), Example 5 (Anle138b F105), Example 7 (Vinclozolin 2204), Example 8 (PHTPP 1304), Example 9 (Baicalein 2204), Example 10 (Resveratrol 1105), Example Example 11 (BTA-1 1104), Example 30 (Compound T) according to the disclosure, respectively. The cells were further cultured for 24 hours for the action of the compounds, the medium was removed, and the cells were fixed using formaldehyde at room temperature. In order to prevent non-specific staining, the cells were reacted with the blocking solution at room temperature for 1 hour, and then the p62 antibody and target protein antibody diluted at a certain ratio were treated using the block solution, and then reacted at room temperature for 1 hour. […]

[6] = test system: CK2; test: target protein degradation by immunoblotting (Experimental Example 6); format: cell-based, human; conditions: HEK293T cell line, 24 hours
Description: as §1, §2, §3, §4

[7] = test system: PDE4; test: as above; format: cell-based, human; conditions: HEK293T, 24 hours
Description: as §1, §2, §3, §4

[8] = molecular target: T4, ACVR1 (Homo sapiens, UniProt Q04771); test: as above; format: cell-based; conditions: HEK293T and HeLa cell lines, 24 hours
T4 construct: as cell lines primarily expressing the target protein; endogenous in cells; host or cells: HEK293T, HeLa
Description: as §1, §2, §3, §4

[9] = molecular target: T5, BCR-Abl (Homo sapiens, UniProt P00519); test: as above; format: cell-based; conditions: K562 cell line, 24 hours
T5 construct: BCR (N-terminal fusion partner, P11274); endogenous in cells; host or cells: K562; the other entry of the earlier key: BCR (P11274, Breakpoint cluster region protein)
Description: as §1, §2, §3, §4

[10] = molecular target: T6, c-Abl (Homo sapiens, UniProt P00519); test: as above; format: cell-based; conditions: K562 cell line, 24 hours
T6 construct: as cell lines primarily expressing the target protein; endogenous in cells; host or cells: K562
Description: as §1, §2, §3, §4

[11] = test system: BRD3; test: as above; format: cell-based, human, mouse; conditions: HEK293T, LNcap and MEF cell lines, 24 hours
Description: as §1, §2, §3
(§5) In this case, HEK293T, which is human kidney-derived cancer cells, LNcap, which is human prostate-derived cancer cells, and MEF cell line, which is mouse embryonic fibroblasts, were treated with Example 14 (Compound A). […]

[12] = test system: BRD2; test: as above; format: cell-based, human, mouse; conditions: HEK293T, LNcap and MEF cell lines, 24 hours
Description: as §1, §2, §3, §5

[13] = test system: BRD4; test: as above; format: cell-based, human, mouse; conditions: HEK293T, LNcap and MEF cell lines, 24 hours
Description: as §1, §2, §3, §5

T2 sequence (O14757 whole entry): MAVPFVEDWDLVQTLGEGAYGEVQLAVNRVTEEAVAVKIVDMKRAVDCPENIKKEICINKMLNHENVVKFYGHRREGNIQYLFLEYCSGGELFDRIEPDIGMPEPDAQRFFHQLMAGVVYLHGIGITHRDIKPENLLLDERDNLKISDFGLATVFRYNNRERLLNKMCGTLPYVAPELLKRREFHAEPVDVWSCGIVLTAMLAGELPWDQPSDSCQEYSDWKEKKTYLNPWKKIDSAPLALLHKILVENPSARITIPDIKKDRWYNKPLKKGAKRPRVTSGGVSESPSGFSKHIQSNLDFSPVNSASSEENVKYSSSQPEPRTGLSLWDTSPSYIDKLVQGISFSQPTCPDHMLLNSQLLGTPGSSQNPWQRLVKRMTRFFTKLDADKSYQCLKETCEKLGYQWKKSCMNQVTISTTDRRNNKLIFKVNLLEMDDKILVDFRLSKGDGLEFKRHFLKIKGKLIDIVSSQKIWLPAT
T4 sequence (Q04771 21-509): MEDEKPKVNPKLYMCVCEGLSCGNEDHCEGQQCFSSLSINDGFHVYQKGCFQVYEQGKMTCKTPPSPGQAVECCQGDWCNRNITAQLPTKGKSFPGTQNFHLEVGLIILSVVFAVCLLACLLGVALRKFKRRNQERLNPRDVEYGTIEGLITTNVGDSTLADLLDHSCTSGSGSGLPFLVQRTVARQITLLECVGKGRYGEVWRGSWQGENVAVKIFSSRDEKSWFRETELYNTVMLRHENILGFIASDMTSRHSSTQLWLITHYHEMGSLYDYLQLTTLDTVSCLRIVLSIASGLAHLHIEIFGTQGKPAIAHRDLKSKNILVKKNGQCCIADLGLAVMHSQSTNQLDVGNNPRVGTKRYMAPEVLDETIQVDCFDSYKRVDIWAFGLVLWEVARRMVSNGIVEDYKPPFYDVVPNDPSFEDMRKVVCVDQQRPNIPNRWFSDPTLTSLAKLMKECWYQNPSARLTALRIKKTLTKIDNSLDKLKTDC
T1 sequence (P03372 whole entry): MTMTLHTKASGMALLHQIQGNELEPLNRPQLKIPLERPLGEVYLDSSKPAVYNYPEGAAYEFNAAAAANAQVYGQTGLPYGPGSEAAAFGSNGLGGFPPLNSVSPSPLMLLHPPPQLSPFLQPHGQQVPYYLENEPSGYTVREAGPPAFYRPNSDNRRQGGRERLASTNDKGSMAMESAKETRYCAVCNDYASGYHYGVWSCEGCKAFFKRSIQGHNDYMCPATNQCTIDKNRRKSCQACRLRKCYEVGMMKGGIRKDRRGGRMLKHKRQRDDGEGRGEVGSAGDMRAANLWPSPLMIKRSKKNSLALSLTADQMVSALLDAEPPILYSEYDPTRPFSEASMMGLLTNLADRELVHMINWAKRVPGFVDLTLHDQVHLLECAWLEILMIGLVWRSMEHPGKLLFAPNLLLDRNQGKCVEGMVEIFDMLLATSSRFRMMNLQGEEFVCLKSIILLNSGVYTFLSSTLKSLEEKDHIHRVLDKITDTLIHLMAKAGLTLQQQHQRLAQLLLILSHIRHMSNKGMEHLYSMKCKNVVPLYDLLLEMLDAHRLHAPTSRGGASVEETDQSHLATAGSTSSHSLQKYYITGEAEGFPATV

CCN(CCCCNCCOCCOCCNCc1ccc(OCc2ccccc2)c(OCc2ccccc2)c1)CCOc1ccc(C(=O)c2c(-c3ccc(O)cc3)sc3cc(O)ccc23)cc1 [Example 23, (4-((1-(3,4-bis(benzyloxy)phenyl)-16-ethyl-5,8-dioxa-2,11,16-triazaoctadecan-18-yl)oxy)phenyl) (6-hydroxy-2-(4-hydroxyphenyl)benzo[b]thiophen-3-yl)methanone]
degradation of target protein ERα (decrease in level vs Control) [1]: can be degraded

NC(=O)Nc1cc(-c2cccc(F)c2)sc1C(=O)N[C@H]1CCCN(CCOCCOCCNC[C@@H](O)COc2cccc(OCCc3ccccc3)c2)C1 [Example 17, 5-(3-fluorophenyl)-N—((S)-1-(2-(2-(2-(((R)-2-hydroxy-3-(3-phenethoxyphenoxy)propyl)amino)ethoxy)ethoxy)ethyl)piperidin-3-yl)-3-ureidothiophene-2-carboxamide]
degradation of target protein Chk1 (decrease in level vs Control) [2]: can be degraded

CN(CCOCCOCCOCCNC[C@@H](O)COc1ccc(OCc2ccc(F)cc2)c(OCc2ccc(F)cc2)c1)c1ccc2nc3ccc(=[N+](C)C)cc-3sc2c1 [Example 32, (R)—N-(7-((15-(3,4-bis((4-fluorobenzyl)oxy)phenoxy)-14-hydroxy-3,6,9-trioxa-12-azapentadecyl) (methyl)amino)-3H-phenothiazin-3-ylidene)-N-methylmethanaminium 2,2,2-trifluoroacetate]
degradation of target protein p-53 (decrease in level vs Control) [3]: can be degraded

O=C(CCCc1ccccc1)NCCOCCOCCOCCNC[C@@H](O)COc1cccc(OCc2ccc(F)cc2)c1 [Example 30, (R)—N-(15-(3-((4-fluorobenzyl)oxy)phenoxy)-14-hydroxy-3,6,9-trioxa-12-azapentadecyl)-4-phenylbutanamide]
degradation of target protein Tau (decrease in level vs Control) [4]: can be degraded | intracellular puncta formation of p62 proteins and of target proteins, and local co-existence thereof [5]: increase gradually

O=C(O)c1ccc2c(c1)nc(Nc1cccc(NCCOCCOCCNC[C@@H](O)COc3ccc(OCc4ccccc4)c(OCCc4ccccc4)c3)c1)c1ccncc12 [Example 19, (R)-5-((3-((2-(2-(2-((3-(4-(benzyloxy)-3-phenethoxyphenoxy)-2-hydroxypropyl)amino)ethoxy)ethoxy)ethyl)amino)phenyl)amino)benzo[c][2,6]naphthyridine-8-carboxylic acid]
degradation of target protein CK2 (decrease in level vs Control) [6]: can be degraded

COc1ccc([C@]2(C#N)CC[C@@H](C(=O)NCCOCCOCCNCc3ccc(OCc4ccccc4)c(OCc4ccccc4)c3)CC2)cc1OC1CCCC1 [Example 15, (1s,4s)-N-(2-(2-(2-((3,4-bis(benzyloxy)benzyl)amino)ethoxy)ethoxy)ethyl)-4-cyano-4-(3-(cyclopentyloxy)-4-methoxyphenyl)cyclohexane-1-carboxamide]
degradation of target protein PDE4 (decrease in level vs Control) [7]: can be degraded

O[C@H](CNCCOCCOCCN1CCN(c2ccc(-c3cnc4c(-c5cccc6ncccc56)cnn4c3)cc2)CC1)COc1cccc(OCCc2ccccc2)c1 [Example 16, (R)-1-(3-phenethoxyphenoxy)-3-((2-(2-(2-(4-(4-(3-(quinolin-5-yl)pyrazolo[1,5-a]pyrimidin-6-yl)phenyl)piperazin-1-yl)ethoxy)ethoxy)ethyl)amino)propan-2-ol]
degradation of target protein ACVR1 (decrease in level vs Control) [8]: can be degraded

Cc1nc(Nc2ncc(C(=O)Nc3c(C)cccc3Cl)s2)cc(N2CCN(CCNCCOCCOCCNC[C@@H](O)COc3ccc(OCc4ccccc4)c(OCCCc4ccccc4)c3)CC2)n1 [Example 18, (R)-2-((6-(4-(15-(4-(benzyloxy)-3-(3-phenylpropoxy)phenoxy)-14-hydroxy-6,9-dioxa-3,12-diazapentadecyl)piperazin-1-yl)-2-methylpyrimidin-4-yl)amino)-N-(2-chloro-6-methylphenyl)thiazole-5-carboxamide]
degradation of target protein BCR-Abl (decrease in level vs Control) [9]: can be degraded | degradation of target protein c-Abl (decrease in level vs Control) [10]: can be degraded

Cc1sc2c(c1C)C(c1ccc(Cl)cc1)=N[C@@H](CC(=O)NCCOCCOCCNC[C@@H](O)COc1ccc(OCc3ccccc3)c(OCc3ccccc3)c1)c1nnc(C)n1-2 [Example 14, N-(2-(2-(2-(((R)-3-(3,4-bis(benzyloxy)phenoxy)-2-hydroxypropyl)amino)ethoxy)ethoxy)ethyl)-2-((S)-4-(4-chlorophenyl)-2,3,9-trimethyl-6H-thieno[3,2-f][1,2,4]triazolo[4,3-a][1,4]diazepin-6-yl)acetamide]
degradation of target protein BRD3 (decrease in level vs Control) [11]: can be degraded | degradation of target protein BRD2 (decrease in level vs Control) [12]: can be degraded | degradation of target protein BRD4 (decrease in level vs Control) [13]: can be degraded

CN(CCOCCOCCOCCNC[C@@H](O)COc1cccc(OCc2ccc(F)cc2)c1)c1ccc2nc3ccc(=[N+](C)C)cc-3sc2c1.O=C([O-])C(F)(F)F [Example 33, (R)—N-(7-((15-(3-((4-fluorobenzyl)oxy)phenoxy)-14-hydroxy-3,6,9-trioxa-12-azapentadecyl) (methyl)amino)-3H-phenothiazin-3-ylidene)-N-methylmethanaminium 2,2,2-trifluoroacetate]
degradation of target protein p-53 (decrease in level vs Control) [3]: can be degraded
